Here are results for 3 compounds from patent publication US12239635B2, “Treatment of cognitive disorders using nitazoxanide (NTZ), nitazoxanide (NTZ) analogs, and metabolites thereof” (The Trustees of Columbia University in the City of New York, priority 2018, dated 2025).

The conditions of series [1]: literature (Stockis et al. and others); cited from earlier work.
Series [2] is described as follows: in vivo. Particulars: Sprague Dawley, rat, po; for AUC(0-inf): AUC0-∞; for AUC(0-t): AUClast. How it is done:
A pharmacokinetic experiment was performed to determine Tizoxanide (TIZ, active metabolite of Nitazoxanide, NTZ) in rat brain and plasma following oral administration to Sprague Dawley (SD) rat.
An Nitazoxanide (NTZ) pill (Alinia) solution was prepared at a concentration of 14.5 mg/mL (10.0 mg/mL as Nitazoxanide (NTZ) for oral administration (per os, PO), ad libitum, in a mixture of 0.5% methyl cellulose and 99.5% saline. The PO dosing volume was 10 mL/kg. SD rats (n=3 per time point; weighing 0.161 to 0.171 kg) were fasted and oral administration was given using a gavage needle. Blood samples were collected from jugular vein and brain tissues were sampled at 0.33, 1 and 4 hrs after oral administration. Blood samples were centrifuged immediately and a 100 ul aliquot of plasma, and the brain tissues were stored −20° C. until the analysis. The concentration of Nitazoxanide (NTZ) and Tizoxanide (TIZ) in plasma and brain were determined by HPLC/MS/MS analysis. An Agilent 1200 HPLC with Zorbax C18 column and an API4000 tandem quadrupole mass spectrometer were used. The molecular ions of Nitazoxanide (NTZ), Tizoxanide (TIZ) and an internal standard (Chlorzoxazone) were fragmented and detected by monitoring the transitions for each compound. Peak areas were integrated using Analyst software version 1.5.1. (Applied Biosystems). The quantifiable range was from 0.001 to 3 μg/ml for plasma and brain samples. Plasma or brain concentration-time profile for each rat was analyzed (WinNonlin 4.1 program) to obtain pharmacokinetic profile parameters.
(§1) wherein Cmax indicates maximum plasma concentration observed, Tmax indicates time to Cmax, AUClast indicates the Area Under the Curve from zero to the last time point, AUC0-∞ indicates the total area under the plasma concentration time curve from zero to infinity, and T1/2 indicates terminal elimination half-life. […] Brain/Plasma ratio was calculated using the formula: (Brain AUClast)/(Plasma AUClast).

Series [3] in a line: in vivo. The note with it: ICR, mouse, po; for AUC(0-inf): AUC0-∞; for AUC(0-t): AUClast. How it is done:
as §1

For series [4] the following is noted: active metabolite following oral administration of Nitazoxanide; cited from earlier work.

As to `O=C(Nc1ncc([N+](=O)[O-])s1)c1ccccc1O[C@@H]1O[C@H](C(=O)O)[C@@H](O)[C@H](O)[C@H]1O` [Tizoxanide glucuronide (TIZ-G), Tizoxanide glucuronide], in series [1], the “Pharmacokinetic profile in humans” value is reported as “excellent pharmacokinetic profiles” and the Tolerability in humans entry is recorded as “well-tolerated”.
Broadly, the AUC(0-inf) is the area under the concentration-time curve extrapolated to infinity. Read a low AUC(0-inf) as less exposure. The AUC(0-t) is the area under the concentration-time curve up to a stated or last time point. A higher AUC(0-t) goes with more exposure. By half-life is commonly meant how long it takes for the measured level to halve. The low end stands for rapid decline, the high end for slow decline. In general, Tmax refers to the time from dosing to the highest level. What is called Cmax is the maximum level reached in the sampled fluid or tissue. As to `O=C(Nc1ncc([N+](=O)[O-])s1)c1ccccc1O` [Tizoxanide (TIZ), Tizoxanide], the Brain/plasma ratio came to 0.008 in the series “in vivo [2]” and 0.015 in the series “in vivo [3]”. The “Tmax, brain” value amounted to 31.8 ± 23.4 min in the series “in vivo [2]” and 1.55 ± 2.12 h in the series “in vivo [3]”. Moreover, the AUC(0-inf) was found to be 62.8 ng·h/mL in the series “in vivo [2]” (brain), 5420 ng·h/mL in the series “in vivo [2]” (plasma), 9.06 ng·h/mL in the series “in vivo [3]” (brain) and 1000 ng·h/mL in “in vivo [3]” (plasma). The area under the curve AUC(0-t) in the series “in vivo [2]” (brain) was 17.9 ± 14.6 ng·h/mL; in “in vivo [2]” (plasma), 2320 ± 603 ng·h/mL; in the series “in vivo [3]” (brain), 7.18 ± 5.62 ng·h/mL; in “in vivo [3]” (plasma), 485 ± 163 ng·h/mL. Also, the half-life in the series “in vivo [2]” (T1/2, brain) was 171 min; in “in vivo [2]” (T1/2, plasma) it was 232 min; in “in vivo [3]” (T1/2, brain), 69 min; in “in vivo [3]” (T1/2, plasma), 228 min. For the same compound, the Tmax in “in vivo [2]” (brain) is 33 min; in the series “in vivo [2]” (plasma) it was 23.4 min; in “in vivo [3]” (brain) it was 1.78 h; in “in vivo [3]” (plasma), 0.67 h. The “Cmax, plasma” value in “in vivo [3]” worked out at 288.50 ± 227.73 ng/mL. In the series “in vivo [3]” (Cmax, plasma), this compound had a Cmax of 228 ng/mL. Further, the Protein bound in series [4] is reported as 99%. For the same compound, the “Pharmacokinetic profile in humans” value in series [1] is “excellent pharmacokinetic profiles”. For the same compound, in series [1], the Tolerability in humans entry was “well-tolerated”.
Regarding `CC(=O)Oc1ccccc1C(=O)Nc1ncc([N+](=O)[O-])s1` [Nitazoxanide (NTZ), [2-[(5-nitro-1,3-thiazol-2-yl)carbamoyl]phenyl]ethanoate], the Brain/plasma ratio in the series “in vivo [2]” is reported as 0.008; in the series “in vivo [3]”, 0.015. Moreover, the “Pharmacokinetic profile in humans” value in series [1] is recorded as “excellent pharmacokinetic profiles”. Besides, the Tolerability in humans result in series [1] was “well-tolerated”.
